The structures appear in SMILES notation.

The values that follow come from patent US20100210635A1, “RENIN INHIBITORS” (Takeda Pharmaceutical Company Limited, priority 2006, published 2010).

The target of this test is T1, Recombinant human renin (Homo sapiens, UniProt P00797).
T1 construct: isolate the active form (residues 67-406); made in house; host or cells: FreeStyle 293-F cells (transient expression of pcDNA3.1(+)/hREN)
T1 sequence (P00797 67-406): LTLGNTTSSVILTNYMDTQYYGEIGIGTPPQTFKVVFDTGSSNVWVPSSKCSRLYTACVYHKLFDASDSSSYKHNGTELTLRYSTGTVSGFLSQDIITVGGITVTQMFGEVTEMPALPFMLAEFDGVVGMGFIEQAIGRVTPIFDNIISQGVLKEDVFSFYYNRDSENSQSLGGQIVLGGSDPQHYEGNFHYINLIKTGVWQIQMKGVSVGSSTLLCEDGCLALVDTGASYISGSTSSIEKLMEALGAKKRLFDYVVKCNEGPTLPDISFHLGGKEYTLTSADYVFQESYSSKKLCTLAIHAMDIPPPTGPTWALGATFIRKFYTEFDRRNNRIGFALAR
The experiment in a line: In vitro enzymatic activity assay of Renin inhibitors (fluorescence, QXL520/HiLyteFluo488 peptide substrate). The format is biochemical. The note with it: recombinant human renin 3 nM, 1 μM substrate, 37° C., pH 7.4; values given as ranges; read-out: IC50 of Exemplified Compounds Against Renin. From the text: Test compounds in varying concentrations may be reacted with recombinant human renin in the presence of substrate, e.g., QXL520-γ-Abu-Ile-His-Pro-Phe-His-Leu-Val-Ile-His-Thr-Lys (HiLyteFluo488)-Arg-OH (Anaspec, San Jose, Calif.). The reaction can be followed kinetically using fluorescence (excitation λ=485 nm; emission λ=538 nm). Inhibition constants (IC50) may be calculated by non-linear curve fitting of the compound concentrations and fluorescence intensities to the standard IC50 equation.
Solutions of test compounds in varying concentrations (<2 mM final concentration) are prepared in dimethyl sulfoxide (DMSO) and then diluted into assay buffer comprising 50 mM Hepes, 1 mM EDTA, 1 mM DTT, 0.1 mg/ml BSA, 0.01% Brij35, pH 7.4. Alternatively, the assay can be performed with a high BSA concentration, wherein the buffer contains an additional 2% BSA.
Recombinant human renin (3 nM final concentration) is added to the dilutions and pre-incubated with the compounds for 10 minutes at 37° C. As described in Examples A-C above, human Renin can be obtained by expressing preprorenin (residue 1-406) in mammalian cells, treating the prorenin (residues 24-406) contained in the culture supernatant with trypsin, and isolate the active form (residues 67-406). After pre-incubation, the reaction is initiated with 1 μM of substrate QXL520-γ-Abu-Ile-His-Pro-Phe-His-Leu-Val-Ile-His-Thr-Lys (HiLyteFluo488)-Arg-OH (Anaspec, San Jose, Calif.). The final DMSO in the assay is 5%. The total volume of the reaction mixture is 20 μL, which can be placed on Greiner 384-well small volume plates.
Renin activity may be determined via fluorescence (excitation λ=485 nm; emission λ=538 nm), e.g., on a Molecular Devices SPECTROmax GEMINI XPS. The fluorescence intensity is determined upon the addition of substrate and determined again after incubation at 37° C. for one hour. The fluorescence intensity of a blank (no inhibition) using vehicle alone is also determined. Renin activity is linearly proportional to the change in fluorescence observed (final−initial).
The percent inhibition of Renin at a given compound concentration is defined as:
100%×[1−(Fcompound/Fblank)]
where Fcompound is the observed fluorescence at a given concentration of test compound and Fblank is the observed fluorescence in the presence of vehicle alone.
The pIC50 value (negative log of the molar concentration of the compound that produces 50% inhibition) of a test compound is calculated by non-linear least squares curve fitting of the equation: […]
to percent inhibition versus compound concentration. The 50% inhibitory concentration (IC50) of a test compound is calculated by raising 10 to the negative pIC50 (10^−pIC50).
For the compound `CC(=O)NCCc1ccccc1Oc1ccccc1CCC(=O)N1CCNC[C@H]1Cc1ccccc1` [Example 24, (R)—N-(2-(2-(3-(2-Benzylpiperazin-1-yl)-3-oxopropyl)phenoxy)phenethyl)acetamide], the IC50 is below 500 nM.
With `CC(=O)NCc1cc(C(F)(F)F)ccc1Oc1cc(C)ccc1CCC(=O)N1CCNC[C@H]1Cc1ccccc1` [Example 45, (R)—N-(2-(2-(3-(2-benzylpiperazin-1-yl)-3-oxopropyl)-5-methylphenoxy)-5-(trifluoromethyl)benzyl)acetamide] the figure was 500 to 5000 nM.
`CC(=O)NCc1ccc(C)nc1Oc1ccc(C)cc1CCC(=O)N1CCNC[C@H]1Cc1ccccc1` [Example 42, (R)—N-((2-(2-(3-(2-benzylpiperazin-1-yl)-3-oxopropyl)-4-methylphenoxy)-6-methylpyridin-3-yl)methyl)acetamide]: the IC50 fell in the range of 500 to 5000 nM.
For `COc1ccccc1OCC(=O)N1CCNC[C@H]1Cc1ccccc1` [Example 57, (R)-1-(2-benzylpiperazin-1-yl)-2-(2-methoxyphenoxy)ethanone] the value was above 50000 nM; for `CC(=O)NCc1cc(C(F)(F)F)ccc1Oc1ccc(C)cc1CCC(=O)N1CCNC[C@H]1Cc1ccccc1` [Example 47, (R)—N-(2-(2-(3-(2-benzylpiperazin-1-yl)-3-oxopropyl)-4-methylphenoxy)-5-(trifluoromethyl)benzyl)acetamide], 500 to 5000 nM.
For `CC(=O)c1cccc(Oc2ccccc2CCC(=O)N2CCNC[C@H]2Cc2ccccc2)c1` [Example 36, (R)-3-(2-(3-Acetylphenoxy)phenyl)-1-(2-benzylpiperazin-1-yl)propan-1-one] the value was 500 to 5000 nM.
For `CC(=O)NCc1cc(C)ccc1Oc1ccc(C)cc1CCC(=O)N1CCNC[C@H]1Cc1ccccc1` [Example 43, (R)—N-(2-(2-(3-(2-benzylpiperazin-1-yl)-3-oxopropyl)-4-methylphenoxy)-5-methylbenzyl)acetamide] the value was below 500 nM; for `C[C@H](CC(=O)N1CCNC[C@H]1Cc1ccccc1)c1ccccc1` [Example 17, (R)-1-((R)-2-Benzylpiperazin-1-yl)-3-phenylbutan-1-one], 500 to 5000 nM.
On to `COc1ccc(Oc2ccccc2CCC(=O)N2CCNC[C@H]2Cc2ccccc2)c(CNC(C)=O)c1` [Example 41, (R)—N-(2-(2-(3-(2-benzylpiperazin-1-yl)-3-oxopropyl)phenoxy)-5-methoxybenzyl)acetamide], for which the IC50 was below 500 nM.
With `CC(=O)NCCc1ccccc1Cc1ccccc1CCC(=O)N1CCNC[C@H]1Cc1ccc(-c2nnn[nH]2)cc1` [Example 94, (R)—N-(2-(2-(3-(2-(4-(1H-tetrazol-5-yl)benzyl)piperazin-1-yl)-3-oxopropyl)benzyl)phenethyl)acetamide] the figure was below 500 nM; with `CC(=O)NCCc1cc(C)ccc1Oc1ccccc1CCC(=O)N1CCNC[C@H]1Cc1ccccc1` [Example 49, (R)—N-(2-(2-(3-(2-benzylpiperazin-1-yl)-3-oxopropyl)phenoxy)-5-methylphenethyl)acetamide], below 500 nM.
With `O=C(Oc1ccccc1CCC(=O)N1CCNC[C@H]1Cc1ccccc1)c1ccccc1` [Example 21, (R)-2-(3-(2-Benzylpiperazin-1-yl)-3-oxopropyl)phenyl benzoate] the figure was 500 to 5000 nM; with `CC(=O)NCc1cc(C)ccc1Oc1ccccc1CCC(=O)N1CCNC[C@H]1Cc1ccccc1` [Example 40, (R)—N-(2-(2-(3-(2-benzylpiperazin-1-yl)-3-oxopropyl)phenoxy)-5-methylbenzyl)acetamide], below 500 nM; with `COc1ccccc1-c1ccccc1CC(=O)N1CCNC[C@H]1Cc1ccccc1` [Example 9, 1-((R)-2-Benzylpiperazin-1-yl)-2-(2′-methoxybiphenyl-2-yl)ethanone], 5000 to 50000 nM.
With `O=C(CCN(c1ccccc1)c1ccccc1)N1CCNC[C@H]1Cc1ccccc1` [Example 58, (R)-1-(2-benzylpiperazin-1-yl)-3-(diphenylamino)propan-1-one] the figure was 5000 to 50000 nM.
As to `CC(=O)NCc1ccccc1Oc1ccccc1CCC(=O)N1CCNC[C@H]1Cc1ccccc1` [Example 29, (R)—N-(2-(2-(3-(2-Benzylpiperazin-1-yl)-3-oxopropyl)phenoxy)benzyl)acetamide], the IC50 was below 500 nM.
For `CN(C)c1cccc(Oc2ccccc2CCC(=O)N2CCNC[C@H]2Cc2ccccc2)c1` [Example 31, (R)-1-(2-Benzylpiperazin-1-yl)-3-(2-(3-(dimethylamino)phenoxy)phenyl)propan-1-one] the value was below 500 nM.
Consider `O=C(O)CCc1ccccc1Oc1ccccc1CCC(=O)N1CCNC[C@H]1Cc1ccccc1` [Example 82, (R)-3-(2-(2-(3-(2-Benzylpiperazin-1-yl)-3-oxopropyl)phenoxy)phenyl)propanoic acid], for which the IC50 lay in the range of 500 to 5000 nM.
Take `O=C(CCc1ccccc1Oc1ccccc1)N1CCNC[C@H]1Cc1ccc(O)cc1` [Example 68, (R)-1-(2-(4-hydroxybenzyl)piperazin-1-yl)-3-(2-phenoxyphenyl)-propan-1-one]: the IC50 is below 500 nM.
With `O=C(CCC1(c2ccccc2)CCCCC1=O)N1CCNC[C@H]1Cc1ccccc1` (stereo partly drawn) [Example 52, 2-(3-((R)-2-benzylpiperazin-1-yl)-3-oxopropyl)-2-phenylcyclohexanone] the figure was 5000 to 50000 nM; with `O=C(COc1cccc(Cc2ccccc2)c1)N1CCNC[C@H]1Cc1ccccc1` [Example 62, (R)-2-(3-benzylphenoxy)-1-(2-benzylpiperazin-1-yl)ethanone], 5000 to 50000 nM; with `CCOc1cccc(Oc2ccccc2CCC(=O)N2CCNC[C@H]2Cc2ccccc2)c1` [Example 32, (R)-1-(2-Benzylpiperazin-1-yl)-3-(2-(3-ethoxyphenoxy)phenyl)propan-1-one], 500 to 5000 nM.
Take `COCCCOc1ccccc1CCC(=O)N1CCNC[C@H]1Cc1ccccc1` [Example 75, (R)-1-(2-benzylpiperazin-1-yl)-3-(2-(3-methoxypropoxy)phenyl)-propan-1-one]: the IC50 is 500 to 5000 nM.
On to `O=C(CCc1ccccc1Oc1ccc(Cl)cc1)N1CCNC[C@H]1Cc1ccccc1` [Example 22, (R)-1-(2-Benzylpiperazin-1-yl)-3-(2-(4-chlorophenoxy)phenyl)propan-1-one], for which the IC50 was below 500 nM.
In the case of `CC(=O)Nc1cccc(Oc2ccccc2CCC(=O)N2CCNC[C@H]2Cc2ccccc2)c1` [Example 33, (R)—N-(3-(2-(3-(2-Benzylpiperazin-1-yl)-3-oxopropyl)phenoxy)phenyl)acetamide], the IC50 fell in the range of 500 to 5000 nM.
With `CC1(C)CC(C(CC(=O)N2CCNC[C@H]2Cc2ccccc2)c2ccccc2)CCO1` (stereo partly drawn) [Example 61, 1-((R)-2-benzylpiperazin-1-yl)-3-(2,2-dimethyltetrahydro-2H-pyran-4-yl)-3-phenylpropan-1-one] the figure was below 500 nM; with `COCCOCCCOc1ccccc1CCC(=O)N1CCNC[C@H]1Cc1ccccc1` [Example 77, (R)-1-(2-benzylpiperazin-1-yl)-3-(2-(3-(2-methoxyethoxy)propoxy)phenyl)propan-1-one], 500 to 5000 nM; with `O=C(CC(c1ccccc1)c1ccccc1)N1CCNC[C@H]1Cc1ccccc1` [Example 2, (R)-1-(2-Benzylpiperazin-1-yl)-3,3-diphenylpropan-1-one], 500 to 5000 nM.
Consider `C[C@@H](CC(=O)N1CCNC[C@H]1Cc1ccccc1)c1ccccc1` [Example 18, (S)-1-((R)-2-Benzylpiperazin-1-yl)-3-phenylbutan-1-one], for which the IC50 was in the range of 5000 to 50000 nM.
For `O=C(CC(Cc1ccccc1)c1ccco1)N1CCNC[C@H]1Cc1ccccc1` (stereo partly drawn) [Example 16, 1-((R)-2-Benzylpiperazin-1-yl)-3-(furan-2-yl)-4-phenylbutan-1-one] the value was 500 to 5000 nM.
